Literature values as cited in US20230148652A1, “ORAL PRODUCTS WITH NICOTINE-POLYMER COMPLEX” (NICOVENTURES TRADING LIMITED, priority 2021, published 2023).

Experiments:
[1] = partition between octanol and water

| chemical stability (when isolated) | Compound | solubility | logP [1] |
| --- | --- | --- | --- |
| – | CC(/C=C/C=C(C)/C=C/C(=O)O)=C\C=C\C=C(C)\C=C\C=C(C)\C=C\C(=O)O (stereo in doubt) [norbixin, (2E,4E,6E,8E,10E,12E,14E,16E,18E)-4,8,13,17-tetramethylicosa-2,4,6,8,10,12,14,16,18-nonaenedioic acid] | water soluble | – |
| – | isopropyl benzoic acid | – | 3.5 |
| – | CC(C)[C@@H]1CC[C@@H](C)C[C@H]1OC(=O)CCC(=O)O [monomenthyl succinate] | – | 3 |
| – | ethyl benzoic acid | – | 2.9 |
| chemically unstable when isolated | COC(=O)/C=C/C(C)=C\C=C\C(C)=C\C=C\C=C(C)\C=C\C=C(C)\C=C\C(=O)O [bixin, (2E,4E,6E,8E,10E,12E,14E,16Z,18E)-20-methoxy-4,8,13,17-tetramethyl-20-oxoicosa-2,4,6,8,10,12,14,16,18-nonaenoic acid] | soluble in fats and alcohols but insoluble in water | – |
